The data set can be described thus: 4-MU partitioning assay (forward and backward extraction) with cyclodextrins. The class given is physicochemical. The following applies: for aqueous containment of 4-MU: independent of pH. The protocol:
The assay format includes forward transfer partitioning (forward extraction; FE) of 4-MU from an aqueous phase to an oil phase and backward transfer partitioning (backward extraction; BE) of 4-MU from an oil phase to an aqueous phase. The assay is performed in 96-well microtiter substrates; clear 96-well substrates (e.g., Costar 3631) for evaluation of forward transfer partitioning with bottom probe fluorescence detection and solid black 96-well substrates (e.g., Costar 3915) for evaluation of backward transfer partitioning with top probe fluorescence detection. A BioTek Synergy HT instrument with 3 mm top probe and 5 mm bottom probe, may, for example, be used for fluorescence measurements. In one example, parameters that may be varied in the assay for evaluation of cyclodextrins in aqueous containment of 4-MU include, but are not limited to, ionic strength of the aqueous phase solution, pH of the aqueous phase solution (e.g., pH 2 or pH 5), and the molar ratio of cyclodextrins to 4-MU.
An example of an assay format used for testing the effect of cyclodextrins on contamination through 4-MU partitioning includes, but is not limited to, the following steps: Pipette an aliquot (20 μL) of an aqueous phase solution (e.g., at pH 2, pH5 or pH 10.5) containing a surfactant, such as 0.01% Tween® 20 in a well of a 96-well clear microtiter plate. […] Measure the fluorescence of each well using a bottom probe at gains 40, 45, and 50. […] Remove the aluminum foil and measure the fluorescence of each well using a top probe at gains 50, 60, 70, and 80. […]
Each well of the second microtiter plate (i.e., a solid black microtiter plate) contains 50 μL of an aqueous solution (200 mM NaHCO3) at pH 10.5. […] For fluorescence calibration, an aqueous solution containing 4-MU (0, 0.01, 0.1, or 1 μM) was added to the corresponding “empty” wells of Table 5 and overlaid with a 50 μL aliquot of fresh oil.
FIGS. 17A and 17B show data tables 1700 and 1750, respectively, of fluorescence readings for forward transfer and backward transfer, respectively, of the 4-MU partitioning assay of Tables 5 and 6. […]

With hydroxypropyl-β-cyclodextrin, the “aqueous containment of 4-MU” value is reported as “effective”.

In the case of methyl-β-cyclodextrin, the “aqueous containment of 4-MU” value was “effective”. For the same substance, the “contamination signal (back extraction)” value (molar ratio of Me-bCD to 4-MU 200:1, FIG. 16D) is given as “lowest contamination signal”.

Values taken from patent publication US8394641B2, “Method of hydrolyzing an enzymatic substrate” (Advanced Liquid Logic Inc., priority 2009, dated 2013).
